{
  "source": "patent US9353088B2",
  "about": "“Crystalline pharmaceutical and methods of preparation and use thereof” (SARcode Bioscience Inc., priority 2009, dated 2016)",
  "key": {"[1]": {"assay": "Single dose ocular and IV ADME with [14C]-compound, whole body autoradiography", "type": "in vivo, rats", "details": "for fecal excretion of administered radioactivity: 0 to 168 hours postdose; for Concentration, Aqueous humor / Concentration, Conjunctiva (bulbar) / Concentration, Conjunctiva (palpebral) / Concentration, Cornea / Concentration, Iris-ciliary body / Concentration, Lens / Concentration, Optic Nerve / Concentration, Retina and Choroid (with RPE) / Concentration, Sclera / Concentration, Vitreous Humor: ocular dosing"}, "[2]": {"assay": "Respiratory function, single IV bolus, head-out plethysmograph", "type": "in vivo, rats", "details": "any dose"}, "[3]": {"assay": "Phase 1 clinical trial of Ophthalmic Solution, safety and tolerability", "type": "in vivo, human", "description": "The objectives of the trial were to measure safety and tolerability, and pharmacokinetics in tear and plasma. The dosing schedule (OU; Oculus Uterque (each eye or both eyes)) was divided into 3 periods, each separated by a 72-hour wash out interval: once/day×1 day (drug one eye; placebo fellow eye), twice/day×10 days, and thrice/day×10 days, 14-day observation. Slit lamp examination of the eye, BCVA (Best Corrected Visual Acuity), STTs (Schirmer Tear Test), TBUT (Tear Break-Up Time), IOP (Intraocular pressure) were assessed at screening and the beginning and end of each period. For each cohort, masked safety data was reviewed by a Safety Committee prior to allowing dose escalation of the next cohort. A total of 2856 doses (102 drops/subject) were administered over 1148 total subject study days (41 study days/subject) in 56 eyes. All subjects in all cohorts completed the study, and no study drug doses were missed."}, "[4]": {"details": "0.5 hour, topical ocular 1 mg/eye"}, "[5]": {"details": "0.5 hour, topical ocular 1 mg/eye, above upper limit of quantification"}, "[6]": {"details": "8 hours postdose, topical ocular 1 mg/eye"}, "[7]": {"details": "24 hours postdose, topical ocular 1 mg/eye"}},
  "data": [
    {"compound": "CS(=O)(=O)c1cccc(C[C@H](NC(=O)c2c(Cl)cc3c(c2Cl)CCN(C(=O)c2ccc4ccoc4c2)C3)C(=O)O)c1", "note": "[Compound of Formula I]", "values": [
      {"measurement": "radioactivity concentration, eye", "setting": "[1]; [4]", "value": "18100 ng equivalents [^14C]-compound of Formula I/g"},
      {"measurement": "radioactivity concentration, kidney", "setting": "[1]; [4]", "value": "151 ng equivalents [^14C]-compound of Formula I/g"},
      {"measurement": "radioactivity concentration, liver", "setting": "[1]; [4]", "value": "272 ng equivalents compound of Formula I/g"},
      {"measurement": "radioactivity concentration, uveal tract", "setting": "[1]; [4]", "value": "9330 ng equivalents [^14C]-compound of Formula I/g"},
      {"measurement": "radioactivity concentration, esophageal contents", "setting": "[1]; 0.5 hour, topical ocular 1 mg/eye, male Sprague Dawley, above upper limit of quantification", "value": "399000 ng equivalents [^14C]-compound of Formula I/g"},
      {"measurement": "radioactivity concentration, nasal turbinates", "setting": "[1]; [5]", "value": "352000 ng equivalents [^14C]-compound of Formula I/g"},
      {"measurement": "radioactivity concentration, small intestinal contents", "setting": "[1]; [5]", "value": "349000 ng equivalents [^14C]-compound of Formula I/g"},
      {"measurement": "radioactivity concentration, cecum contents", "setting": "[1]; [6]", "value": "57600 ng equivalents [^14C]-compound of Formula I/g"},
      {"measurement": "radioactivity concentration, large intestinal contents", "setting": "[1]; [6]", "value": "133000 ng equivalents [^14C]-compound of Formula I/g"},
      {"measurement": "radioactivity concentration, uveal tract", "setting": "[1]; 12 hours postdose, topical ocular 1 mg/eye", "value": "610 ng equivalents [^14C]-compound of Formula I/g"},
      {"measurement": "radioactivity concentration, cecum contents", "setting": "[1]; [7]", "value": "5870 ng equivalents [^14C]-compound of Formula I/g"},
      {"measurement": "radioactivity concentration, large intestinal contents", "setting": "[1]; [7]", "value": "18000 ng equivalents [^14C]-compound of Formula I/g"},
      {"measurement": "fecal excretion of administered radioactivity", "setting": "[1]; IV administration 10 mg/kg", "value": "~95", "unit": "%"},
      {"measurement": "decline of radioactivity concentration, esophageal contents", "setting": "[1]; at 2 hours postdose", "value": "~100", "unit": "fold"},
      {"measurement": "decline of radioactivity concentration, esophagus", "setting": "[1]; at 2 hours postdose", "value": "approximately 50 fold"},
      {"measurement": "levels in conjunctiva/cornea", "setting": "[1]; for 16 hrs, rat", "value": "> 100", "unit": "nM"},
      {"measurement": "fecal excretion of administered radioactivity", "setting": "[1]; ocular administration 1 mg/eye", "value": "approximately 60%"},
      {"measurement": "Concentration, Aqueous humor", "setting": "[1]; 0.5 hour after administration", "value": "1770 ng Equivalents [^14C]-compound of Formula I/g tissue"},
      {"measurement": "Concentration, Conjunctiva (bulbar)", "setting": "[1]; 0.5 hour after administration", "value": "31500 ng Equivalents [^14C]-compound of Formula I/g tissue"},
      {"measurement": "Concentration, Conjunctiva (palpebral)", "setting": "[1]; 0.5 hour after administration", "value": "26300 ng Equivalents [^14C]-compound of Formula I/g tissue"},
      {"measurement": "Concentration, Cornea", "setting": "[1]; 0.5 hour after administration", "value": "17150 ng Equivalents [^14C]-compound of Formula I/g tissue"},
      {"measurement": "Concentration, Iris-ciliary body", "setting": "[1]; 0.5 hour after administration", "value": "17550 ng Equivalents [^14C]-compound of Formula I/g tissue"},
      {"measurement": "Concentration, Lens", "setting": "[1]; 0.5 hour after administration", "value": "38.8 ng Equivalents [^14C]-compound of Formula I/g tissue"},
      {"measurement": "Concentration, Optic Nerve", "setting": "[1]; 0.5 hour after administration", "value": "796 ng Equivalents [^14C]-compound of Formula I/g tissue"},
      {"measurement": "Concentration, Retina and Choroid (with RPE)", "setting": "[1]; 0.5 hour after administration", "value": "510 ng Equivalents [^14C]-compound of Formula I/g tissue"},
      {"measurement": "Concentration, Sclera", "setting": "[1]; 0.5 hour after administration", "value": "2750 ng Equivalents [^14C]-compound of Formula I/g tissue"},
      {"measurement": "Concentration, Vitreous Humor", "setting": "[1]; 0.5 hour after administration", "value": "1330 ng Equivalents [^14C]-compound of Formula I/g tissue"},
      {"measurement": "Concentration, Aqueous humor", "setting": "[1]; 4.0 hours after administration", "value": "116 ng Equivalents [^14C]-compound of Formula I/g tissue"},
      {"measurement": "Concentration, Conjunctiva (bulbar)", "setting": "[1]; 4.0 hours after administration", "value": "4480 ng Equivalents [^14C]-compound of Formula I/g tissue"},
      {"measurement": "Concentration, Conjunctiva (palpebral)", "setting": "[1]; 4.0 hours after administration", "value": "21830 ng Equivalents [^14C]-compound of Formula I/g tissue"},
      {"measurement": "Concentration, Cornea", "setting": "[1]; 4.0 hours after administration", "value": "1346 ng Equivalents [^14C]-compound of Formula I/g tissue"},
      {"measurement": "Concentration, Iris-ciliary body", "setting": "[1]; 4.0 hours after administration", "value": "500 ng Equivalents [^14C]-compound of Formula I/g tissue"},
      {"measurement": "Concentration, Lens", "setting": "[1]; 4.0 hours after administration", "value": "9.69 ng Equivalents [^14C]-compound of Formula I/g tissue"},
      {"measurement": "Concentration, Optic Nerve", "setting": "[1]; 4.0 hours after administration", "value": "0 ng Equivalents [^14C]-compound of Formula I/g tissue"},
      {"measurement": "Concentration, Retina and Choroid (with RPE)", "setting": "[1]; 4.0 hours after administration", "value": "46.7 ng Equivalents [^14C]-compound of Formula I/g tissue"},
      {"measurement": "Concentration, Sclera", "setting": "[1]; 4.0 hours after administration", "value": "387 ng Equivalents [^14C]-compound of Formula I/g tissue"},
      {"measurement": "Concentration, Vitreous Humor", "setting": "[1]; 4.0 hours after administration", "value": "183 ng Equivalents [^14C]-compound of Formula I/g tissue"},
      {"measurement": "Urinary excretion of administered radioactivity", "setting": "[1]; ocular or IV", "value": "up to 2%"},
      {"measurement": "melanin binding", "setting": "[1]; tissue distribution in pigmented vs albino rats", "value": "did not preferentially bind to melanin"},
      {"measurement": "metabolites in pooled plasma, urine and fecal homogenates", "setting": "[1]; up to 168 hrs after topical ocular or IV dose", "value": "no metabolites were isolated"},
      {"measurement": "respiratory function (tidal volume, respiration rate, minute volume)", "setting": "[2]", "value": "No adverse changes in respiratory function or adverse effects"},
      {"measurement": "adverse events considered related to administration", "setting": "[3]; any dose strength (0.1-5%) or dose regimen, healthy adults", "value": "No deaths, discontinuations, serious or severe ocular or non-ocular AEs"},
      {"measurement": "total lymphocyte, CD3, CD4, CD8 cell counts", "setting": "[3]; throughout the trial", "value": "no evidence of lymphocyte or neutrophil suppression"},
      {"measurement": "overall safety and tolerability", "setting": "[3]; topical ocular instillation, dose strengths up to 5% TID", "value": "safe and well-tolerated"}
    ]}
  ]
}
